Laboratory results reported in patent US10785978B2, “Control and repellency of biting flies, house flies, ticks, ants, fleas, biting midges, cockroaches, spiders and stink bugs” (priority 2012, dated 2020).

Experiments:
Format in all cases: in vivo
[1] = test system: German cockroaches; assay: German cockroach repellency, choice of food stations in arena; conditions: 50% in acetone; at 4 hours
Method: The efficacy of compounds of this invention to control or repel German cockroaches was illustrated using the following protocol. One food pellet each was placed on a paper square (station) treated with one of the repellent materials. Materials were diluted to 50% in acetone and a straight acetone station was also used. Both stations were placed on the same side of the arena. Cockroaches were starved for 2 days and then released into the arena. They were given a choice to feed on either food pellet. A control arena with an acetone treated station and an untreated station was also used. The distribution of cockroaches within the arena was recorded at 30 minute intervals over 4 hours. Repellency at 4 hours was calculated by the number of cockroaches on the untreated station vs. the total number of cockroaches on the stations.

[2] = test system: Brown Dog Ticks, Rhipicephalus sanguineus; conditions: in vivo
Excerpt: The following protocol was employed to test compounds of this invention for toxicity (mortality) against ticks. There were 5 replicates of 5 dog ticks for each treatment. […] Filter paper strips were laid on a sheet of aluminum foil and enough of each of the test sample was applied to thoroughly saturate the paper. The paper was then rolled and placed inside a glass shell vial as to line the sides of the vial. A small paper disc, also saturated with the test sample, was then placed at the bottom of the vial. Brown Dog Ticks, Rhipicephalus sanguineus, were then introduced into the vials which were covered with aluminum foil, the inside of which was painted with some of the test sample. The ticks remained in the vials, constantly exposed to the test samples, for the duration of the test. A small hole was poked through the foil for ventilation. Each control replicate was subjected to the same procedures outlined above, except that they were not treated. The controls were placed in the same area as the test replicates for the duration of the test. Mortality observations were made at 24 hours. Ticks were classified as alive (able to move normally), moribund (those classified as moribund will show some movement, but will not be able to crawl in a coordinated manner, or will be unable to right themselves if placed on their backs), or dead (no movement after physical stimuli). All dead ticks were confirmed by probing or agitation to make sure that they are unable to move; any that show movement visible to the naked eye were recorded as moribund. At 24 hours the tick mortality was 0% for the control, 100% for γ-dodecalactone, 100% for methyl apritone and 76% for methyl dihydrojasmonate.

[3] = test system: Brown Dog Ticks; assay: Second repellent assay against Brown Dog Ticks; conditions: 15% in isopropyl alcohol
Method: Also, a second repellent assay was used to evaluate six test samples against Brown Dog Ticks. Five replicates of five ticks were given the opportunity to quest onto a vertical strip of untreated filter paper and then allowed to move upward toward a second vertical strip of filter paper treated with one of the six candidate repellents or DEET®. In the control situation, the second strip was treated with isopropanol. They were then observed for directional or behavioral changes caused in response to contact with the repellent. Ticks were recorded as either repelled or not repelled. Compounds were diluted in isopropyl alcohol. The percentages of ticks repelled are shown below in Table 6.

[4] = test system: house flies; assay: House fly repellency on treated filter paper food trays in cages; conditions: 5% in isopropyl alcohol; over 6 hours
Method: The bottom of each cage was lined with brown craft paper and divided into 4 equal quadrants. Each quadrant housed a makeshift filter paper food tray. Two of the four filter papers were treated with repellent and two treated with isopropanol. Control cages contained filter papers that were treated with 4 filter papers of isopropanol only. The number of flies resting on filter paper per quadrant was recorded every 30 minutes for a total of 6 hours. Cages were rotated to eliminate positional bias. […] Each of the test samples were diluted in isopropyl alcohol.

[5] = test system: Brown Dog Ticks, Rhipicephalus sanguineus; assay: Brown Dog tick repellency on vertical filter paper strips; conditions: for ticks repelled: concentration not given
Method: Control against Brown Dog ticks was determined in the following protocol. Strips of filter paper, 1″ by 3″, were placed on a sheet of aluminum foil treated with 1 ml each of the test samples and allowed to dry. The end of each treated strip was stapled to an untreated filter paper strip of the same dimensions. The stapled strips were suspended in a vertical position above a tray, with the treated half attached to a horizontal glass rod by a metal clip. The untreated half was lowered when the strip is vertically positioned. Brown Dog Ticks, Rhipicephalus sanguineus, mixed sexes, were purchased from a supplier. Five replicates of five ticks for each treatment regimen plus five additional replicates for the control were employed. Ticks shipped to the test site were given at least one day to acclimate to “shipping stress” before they are used for testing. Those tick specimens which appeared sluggish or moribund were not used. Suitable ticks were removed from their containers and allowed to quest on the free end of the test strip. Once present on the strip they were watched as they crawled up the strip until they contacted the treated paper. If the tick, once in contact with the treated zone, either turned around, stopped without proceeding further, or dropped off, the tick is classified as repelled. If it continued to crawl onto the treated strip, even after it stopped briefly, that tick was classified as not repelled. A maximum observation time of 1 minute per replicate was allowed for ticks to respond after reaching the treated area, but during the test, if more time was needed, the maximum observation time may have been adjusted at the discretion of the study coordinator. At the end of the observation time, the number of ticks repelled was recorded. Tick behavior was recorded when applicable, such as whether increased number of affected or repelled ticks occurred in successive replicates over time. After the completion of each treatment parameter, the testing chamber was ventilated for five minutes by turning on the exhaust fan and opening the door leading into the chamber. Ticks were used only once. Average number of ticks displaying each behavior category were calculated and compared to the control replicates.

In the case of `CCC(C)=CCCC(C)=CCC1CCCC1=O` (stereo not drawn) [Methyl apritone, methyl apritone], the “% Repellency 4 hr” value [1] is reported as 100%, the “24 hr mortality (%)” value [2] is reported as 100% and the “tick mortality at 24 hours” value [2] is reported as 100%. The “Mean % repelled” value [3] was 100%, the “Overall % Repellency” value [4] was 45% and the Mean % repelled ([5]; 7.5% in isopropyl alcohol) was 100%. The Mean % repelled ([5]; Neat) was 100% and the ticks repelled [5] was 100%.
For `CCCCCC1C(=O)CCC1CC(=O)OC` (stereo not drawn) [Methyl dihydrojasmonate, methyl dihydrojasmonate], the “% Repellency 4 hr” value [1] was 72.2%, the “24 hr mortality (%)” value [2] was 76% and the “tick mortality at 24 hours” value [2] was 76%. The “Mean % repelled” value [3] was 100%, the “Overall % Repellency” value [4] was 52% and the Mean % repelled ([5]; Neat) was 100%. It also gave a ticks repelled [5] of 100%.
